Test results as given in patent US8093209B2, “Methods of suppressing microglial activation and systemic inflammatory responses” (Cognosci, Incorporated, priority 2002, dated 2012).
Entries after “also recorded” stand apart in the source; their conditions may differ.

Columns and labels:
[1] = tested on: thioglycollate-elicited peritoneal macrophages; assay: [Ca2+]i in Fura-2/AM treated single macrophages, digital imaging microscopy (Example 10); assay type: cell-based, mouse; conditions: for increase in [Ca2+]i levels compared to buffer: macrophage
Method: (§1) Macrophage Harvesting. All experiments involving animals were first approved by the Duke Institutional Animal Care and Use Committee. Pathogen-free female C57BL/6 mice and ApoE deficient mice previously backcrossed 10 times to the C57BL/6 strain were obtained from the Jackson Laboratory (Bar Harbor, Me.). Thioglycollate-elicited peritoneal macrophages were harvested by peritoneal lavage using 10 ml of ice-cold Hanks' balanced salt solution containing 10 mM HEPES and 3.5 mM NaHCO3 (HHBSS), pH 7.4. The macrophages were pelleted by centrifugation at 4° C. at ˜800×g for 10 min and resuspended in RPMI 1640 media supplemented with 25 mM HEPES, 12.5 U/ml penicillin, 6.5 mg/ml streptomycin, and 5% fetal bovine serum.
Measurement of [Ca^2+]i in apoE and peptide treated macrophage. Changes in [Ca^2+]i levels in Fura-2/AM treated single cells were quantified using digital imaging microscopy in accordance with known techniques. Macrophages were plated on glass coverslips sitting in 35 mm Petri dishes at a density of 1.5×10^5 cells/cm^2, and allowed to adhere for 2 h in a humidified 5% CO2 incubator at 37° C. The non-adherent cells were aspirated and the monolayers were washed twice with HHBSS. 4 μM Fura-2/AM was incubated with the cells for thirty min in the dark at room temperature and [Ca^2+]i was subsequently measured using a digital imaging microscope in accordance with known techniques. […] To determine if signaling resulted from ligation of the ligand to LRP, cells were preincubated with a 1000-fold molar excess of RAP or 10 mM NiCl2, both of which inhibit ligand binding to LRP, for 5 min prior to stimulation with apoE or peptide. In experiments in which the involvement of a G protein was assessed, monolayers were incubated with 1 μg/ml pertussis toxin for 12 h at 37° C. and Ca^2+ measurements were made as stated above.

[2] = tested on: thioglycollate-elicited peritoneal macrophages; assay: Competition between apoE and apoE mimetic peptide: [Ca2+]i on sequential stimulation; assay type: cell-based, mouse
Method: Fura-2/AM loaded macrophages were incubated overnight, plated on glass cover slips, stimulated with one ligand, and changes in [Ca^2+]i quantified. Cells were then stimulated with second ligand and Ca^2+ measurements repeated.

[3] = tested on: primary rat neuronal/glial cultures exposed to NMDA; assay: NMDA-induced LDH release in primary neuronal-glial cultures; assay type: cell-based; conditions: peptide 0.3-10 μM, 100 μM NMDA
Method: (§2) Primary neuronal-glial cultures were prepared from fetal Sprague-Dawley rat brains at 18 days of gestation as previously described (Pearlstein et al., 1998). Brains were harvested from 10-15 pups and dissected to separate cortex from meninges and subcortical structures using anatomical landmarks. Cortices were pooled and minced into 2 mm^3 pieces in a buffered salt solution supplemented with 20 mM HEPES buffer, pH 7.4, containing 0.25% trypsin. The tissue was incubated for 20 minutes at 37° C. in a 5% CO2/95% room air atmosphere, and washed twice with ice-cold, glutamine-free minimum essential medium (MEM; Life Technologies) containing 15 mM glucose, 5% fetal bovine serum (GIBCO), 5% horse serum (GIBCO), and 1% DNase-I (Sigma Chemical Co., St. Louis, Mo., USA). Tissue pieces were dissociated by trituration through a fire-polished 9-inch Pasteur pipette (I.D.=0.7 mm). The resultant suspension was centrifuged at 50×g for 10 min, the supernatant discarded, and the pellet resuspended in growth medium (MEM supplemented with 15 mM glucose, 5% fetal bovine serum, and 5% horse serum). The dissociated cells were plated to achieve a confluent monolayer using 4×10^5 cells per well in poly-D-lysine coated, 24-well culture plates (Falcon 3047; Becton Dickinson Co., Lincoln Park, N.J., USA). Cultures were maintained undisturbed at 37° C. in a humidified 5% CO2/95% room air atmosphere for 13-16 days prior to use.
Mature cultures (13-16 days in vitro) were washed with Mg^2+-free buffered salt solution (BSS) containing 20 mM HEPES buffer (pH7.4) and 1.8 mM CaCl2, prior to the addition of NMDA. Following NMDA exposure, cultures were maintained for 30 minutes at 37° C. in a 5% CO2/95% air atmosphere. The medium containing NMDA was then removed and replaced with MEM supplemented with 20 mM glucose. The cultures were returned to the incubator for 24 h. In all experiments, cellular damage was assessed at 24 h after exposure to NMDA by measurement of the activity of lactate dehydrogenase (LDH) released into the medium as described below. The non-competitive NMDA receptor antagonist, MK-801 (Tocris Cookson Ins., St. Louis, Mo.) at a concentration of 10 μM was used as a positive control. Preliminary dose-response studies were performed to determine the concentration of NMDA (100 μM) required to effect a near-maximal LDH release (ED90) as used in the present study.
The effect of human recombinant apoE (Panverra, Madison, Wis.) on 100 μM NMDA-induced LDH release was assessed and the dose-response curve was obtained (apoE: 0.1-10 μM final concentration). ApoE3, the most common human isoform, was added to the cultures 30 minutes prior to and removed following NMDA exposure. The effect of apoE peptide (133-149) on NMDA (100 μM or 300 μM)-induced LDH release was next assessed and the dose-response curve was obtained in a separate set of sister cultures that were simultaneously treated under one of the following conditions: (1) various doses of peptide (0.3 μM, 1 μM, 3 μM, 6 μM, 10 μM final concentration) were added to the culture immediately prior to and removed at the end of NMDA exposure; (2) no peptide, NMDA exposure; (3) no peptide, no NMDA exposure; (4) no peptide, NMDA exposure with 10 μM MK-801 for 30 minutes. The effect of a scrambled control peptide on NMDA-induced LDH release was similarly assessed.
The effect of time of administration of apoE peptide (133-149) on NMDA-induced LDH release was assessed in a separate set of sister cultures that were simultaneously treated under one of following conditions: (1) peptide was added to the culture medium 24 h prior to and removed immediately before exposure to NMDA; (2) peptide was added immediately prior to and removed at the end of the NMDA exposure; (3) peptide was added immediately following the 30 minutes NMDA exposure; (4) no peptide, NMDA exposure; (5) no peptide, no NMDA exposure. […]

[4] = tested on: primary rat neuronal/glial cultures exposed to NMDA; assay: NMDA-induced 45Ca uptake by primary neuronal-glial cultures; assay type: cell-based; conditions: 6 μM peptide, 100 μM NMDA
Method: as §2
Cellular calcium uptake from the extracellular space was assessed using ^45CaCl2 (American Radiolabeled Chemicals, St. Louis, Mo.). After washing the cultures with Mg^2+-free BSS containing 20 mM HEPES buffer, 6 μM peptide or 10 μM MK-801 was added to each well prior to and removed at the end of 100 μM NMDA exposure. ^45Ca (0.28 μCi/ml, 0.9 μCi/well) was added to each well immediately prior to NMDA exposure. The cultures were returned to the incubator and maintained at 37° C. Twenty minutes later, the exposure medium was removed and each well was washed 3 times with ice-cold Mg^2+-free BSS containing 20 mM HEPES buffer. The cells were subsequently lysed by addition of 0.2% sodium dodecyl sulfate (SDS). An aliquot from each well was added to a liquid scintillation vial containing 10 ml Cytoscint™ (ICN, Biochemical Research Product, CA) and radioactivity was determined by scintillation counting and normalized to cell count.

[5] = tested on: thioglycollate-elicited peritoneal macrophages; assay: IP3 formation in myo-[2-3H]inositol-labeled macrophages (Example 10); assay type: cell-based, mouse
Method: as §1, with “serum. Cell viability was determined by the trypan blue exclusion method and was consistently greater then 95%.” for “serum.”
Measurement of IP3 in apoE treated macrophage and effect of pertussis toxin. The formation of IP3 in myo-[2-^3H]inositol-labeled macrophages under various experimental conditions was quantified in accordance with known techniques. Macrophage were plated in 6 well plates (4×10^6 cells/well) and allowed to adhere at 37° C. for 2 h in a humidified 5% CO2 incubator. Medium was aspirated from the monolayers and RPMI 1640 medium containing 0.25% BSA and myo-[2-^3H]inositol (specific activity 10-20 Ci/mmol) was added to each well. […] Radioactivity was determined by placing aliquots in a liquid scintillation counter to determine radioactivity. […] The effect on IP3 formation was measured as described above.

Substance | increase in [Ca2+]i levels compared to buffer [1] | [Ca2+]i response on repeated or sequential ligand exposure (desensitization) [2] | protection against NMDA toxicity (LDH release), dose response [3] | NMDA-induced calcium influx compared to NMDA alone [4] | cells examined showing increase in [Ca2+]i [1] | concentration dependence of [Ca2+]i increase [1] | [Ca2+]i level in treated cells, typical experiment ([1]; unstimulated cells 95.33±7.37 nM) [nM] | increase in IP3 levels [5] | concentration dependence of IP3 increase ([5]; stimulated 60 s)
scrambled control peptide: Example 10: scrambled control of identical size and amino acid composition to the 20 amino acid ApoE mimetic peptide (Ac-LARKLRSRLVHLRLKLR-NH2) [reference compound] | no effect | No desensitization in calcium response | no protection was observed | no effect on calcium influx |  |  |  |  | 
apoE: Example 10: human recombinant apoE2 obtained commercially from Panvera Corp | 2-4 fold | marked attenuation in [Ca^2+]i suggesting tachyphylaxis; also recorded: loss of [Ca^2+]i response to apoE addition following initial exposure to peptide |  |  | 70-80% | dose-dependent | 180.25 ± 14.57 | 1.5-2.0 fold | dose-dependent
